Measurements reported in patent publication US20160296538A1, “[…] RESPONSE BIOMARKER FOR TH-302 ANTI-CANCER THERAPY” (THRESHOLD PHARMACEUTICALS, INC., priority 2013, published 2016).
Entries after “also recorded” stand apart in the source; their conditions may differ.

Legend:
[1] = test system: H460 human non-small cell lung cancer (NSCLC) cell line; test: H460 NSCLC xenograft tumor growth, repeated dosing; type: in vivo; details: H460 model; 50 mg/kg QDx5 for 2 wk, i.p.; P vs vehicle <0.001
Description: (§1) H460 is a high hypoxic fraction tumor model, while the 786-O RCC model is well-vascularized with very low hypoxia. […] When compiling the data from both H460 and 786-O tumors, there was significant correlation between [18F]-HX4 uptake and pimonidazole-positive hypoxic fraction (HF %, R2=0.55, p=0.006).
(§2) The utility of [18F]-HX4 to serve as a predictive biomarker for TH-302 anti-cancer efficacy was shown by the significant correlation observed between the TH-302 anti-cancer efficacy in a model and its hypoxic fraction as measured by [18F]-HX4. […] TGD500 was determined as the increased time (days) for the treated tumor's size on average to reach 500 mm^3 as compared with the vehicle group. TGI was defined as (1−ΔT/ΔC)×100, where ΔT/ΔC is the ratio of the change in mean tumor volume of the treated group (ΔT) and of the control group (ΔC).

[2] = test system: carbonic anhydrase IX (CA-IX); test: ELISA quantification of circulating plasma CA-IX in H460 xenograft animals; type: in vivo, nu/nu mice; details: for circulating plasma CA-IX level change: 72 hours, TH-302 150 mg/kg i.p., doxorubicin 4 mg/kg iv
Protocol: (§3) Three biomarker platforms were employed in this study: positron emission tomography (PET) imaging employing the tracer [18F]-HX4; immunohistochemistry of isolated tumor tissue employing antibodies directed against the exogenous hypoxia biomarker pimonidazole and the endogenous hypoxia biomarker carbonic anhydrase IX (CA-IX); and ELISA-based quantification of circulating plasma CA-IX.
(§4) [18F]-HX4 uptake was assessed by PET/CT imaging, and the tumor to muscle ratio (T/M) was determined. […] Blood was collected from the pre- and post-treated animals via retro-orbital venipuncture. […] For tissue biomarker analysis, tumors were harvested 72 hours after TH-302 treatment, and tumor hypoxia was assessed by semi-quantitative morphometric analysis of the PIMO immunostaining at that time.

[3] = test system: H460 xenograft tumor hypoxia ([18F]-HX4 uptake); test: [18F]-HX4 PET/CT imaging of H460 xenograft tumors; type: in vivo, nu/nu mice
Description: (§5) Proliferating cells (as measured by Ki-67 immunostaining) were decreased as well; DNA damage (as measured by γH2AX immunostaining) and necrosis (as measured by hematoxylin and eosin, H&E, staining) were increased. There was regional co-localization of pimonidazole and CA-IX, but not co-localization of pimonidazole and two other putative endogenous hypoxia markers: Glut-1 or HIF-1α.
as §3
as §4, with “venipuncture. Plasma CA-IX changed from baseline 165±13 to 104±9.3 pg/ml 72 hours after TH-302 dosing, a 37% reduction (p<0.05; n=10 per group).” for “venipuncture.”, “time. […]” for “time.”

H460 xenograft tumors = test: Tissue biomarkers in H460 tumors (Ki67, γH2AX, H&E); type: in vivo, nu/nu mice; details: 72 hours after 150 mg/kg i.p.
Protocol: as §5
as §4, with “venipuncture. Plasma CA-IX changed from baseline 165±13 to 104±9.3 pg/ml 72 hours after TH-302 dosing, a 37% reduction (p<0.05; n=10 per group).” for “venipuncture.”, “time. The hypoxic fraction (HF) was 13±1.7% in the vehicle group (n=5) and 5.8±0.5% in the TH-302 treatment group (n=6, p<0.05).” for “time.”

[4] = test system: H460 xenograft tumor hypoxia (pimonidazole); test: Pimonidazole immunostaining of H460 tumors (hypoxic fraction); type: in vivo, nu/nu mice
Description: as §5, §3
as §4, with “venipuncture. Plasma CA-IX changed from baseline 165±13 to 104±9.3 pg/ml 72 hours after TH-302 dosing, a 37% reduction (p<0.05; n=10 per group).” for “venipuncture.”, “time. […]” for “time.”

[5] = test system: 786-O human renal cell carcinoma (RCC) cell line; test: 786-O RCC xenograft tumor growth, repeated dosing; type: in vivo; details: 786-O model; 50 mg/kg QDx5 for 2 wk, i.p.; P vs vehicle >0.05
Description: as §1, §2

[6] = test system: H460 non-small cell lung cancer xenograft; test: H460 ectopic xenograft tumor growth and body weight, 150 mg/kg i.p.; type: in vivo, nu/nu mice
Description: as §5
The human H460 non-small cell lung cancer human tumor ectopic xenograft model was employed for this study. The H460 non-small cell lung cancer xenograft model was established by s.c. implantation of 1×10^6 cells in the flank of nu/nu mice. When the tumor size was 100 mm^3, a single dose of TH-302 (150 mg/kg, i.p.) or vehicle was administered.

[7] = 72 hrs after one dose at 150 mg/kg i.p.

Cn1c(COP(=O)(NCCBr)NCCBr)cnc1[N+](=O)[O-] [TH-302, (2-bromoethyl)({[(2-bromoethyl)amino][(2-nitro-3-methylimidazol-4-yl)methoxy]phosphoryl})amine]
TGD500 (increased time for treated tumor to reach 500 mm^3 vs vehicle) [1]: 18 days
TGI [1]: 89%
Plasma CA-IX ([2]; 72 hours after dosing 150 mg/kg i.p., baseline 165±13, n=10 per group): 104 ± 9.3 pg/mL
Plasma CA-IX reduction from baseline ([2]; 72 hours after dosing 150 mg/kg i.p., p<0.05): 37%
circulating plasma CA-IX level change [2]: significantly reduced
[18F]-HX4 tumor to muscle ratio (T/M) ([3]; 72 hours after 150 mg/kg i.p., pre-treatment 3.3±0.3, p<0.005): 2.1±0.2
[18F]-HX4 uptake change (PET-CT) [3, 7]: significantly reduced
DNA damage (γH2AX immunostaining) (H460 xenograft tumors): significantly increased
Proliferating cells (Ki67 immunostaining) (H460 xenograft tumors): decreased; also recorded: significantly reduced
necrosis (hematoxylin and eosin staining) (H460 xenograft tumors): significantly increased
hypoxic fraction (HF %) change, pimonidazole immunostaining ([4]; 72 hours after treatment): significantly reduced
hypoxic fraction (HF), PIMO immunostaining ([4]; tumors harvested 72 hours after 150 mg/kg i.p., vehicle 13±1.7%, n=6, p<0.05): 5.8±0.5%
TGD500 (increased time for treated tumor to reach 500 mm^3 vs vehicle) [5]: 10 days
TGI [5]: 10%
tumor growth in relation to initial [18F]-HX4 uptake ([6]; 150 mg/kg i.p., Q4-5Dx3): tumors with higher initial [18F]-HX4 uptake grew slower
tumor volume change [6, 7]: did not change significantly
TGD1000 (tumor growth delay to tumor size of 1000 mm^3) ([6]; single dose 150 mg/kg i.p.): 10 days
maximum body weight loss ([6]; single dose 150 mg/kg i.p.): 2%
TGI (tumor growth inhibition) ([6]; single dose 150 mg/kg i.p. at tumor size 100 mm^3): 58%

COc1cccc2c1C(=O)c1c(O)c3c(c(O)c1C2=O)C[C@@](O)(C(=O)CO)C[C@@H]3O[C@H]1C[C@H](N)[C@H](O)[C@H](C)O1 [doxorubicin, reference compound]
circulating plasma CA-IX level change [2]: did not change circulating CA-IX levels significantly; also recorded: No change
